Measurements published in patent US20130203659A1 (priority 2006, published 2013).
Like-named read-outs stand apart in the source and are kept apart here. Non-standard residues stand in square brackets, D forms with d. Primed or numbered codes have the meaning given here. No end group written: not given here. Aib′ = alpha aminobutyric acid (source's wording); 20k mPEG = methoxy-polyethylene glycol, 20 kDa; 20k PEG = polyethylene glycol, 20 kDa

Assays:
[1] = tested on: db/db diabetic mouse model; experiment: Fed blood glucose in db/db diabetic mice; assay type: in vivo; details: for decrease of blood glucose levels over time (FIG. 13): 10 ug injected into each mouse
Experimental: The db/db mice are commercially available from The Jackson Laboratory JAX® GEMM® Strain—Spontaneous Mutation Congenic Mice, and are homozygous for the diabetes spontaneous mutation (Lepr^db). These mice become identifiably obese around 3 to 4 weeks of age. The criterion for selection for each mouse to enter the study was blood glucose of at least 300 mg/dL. Db/db mice at 8.5 weeks of age (for a chronic 1-2 wk study) to about 10-11 weeks of age (for an acute 1-3 day study) were injected once with each tested compound (acute experiment) or multiple times (chronic experiment). […] The mice were then placed in a fresh cage without any chow, so as to limit any variability in blood glucose levels associated with eating behaviors. Time points of 1 hr, 4 hr, 6 hr, and 24 hr were normally taken. When at the 24 hour time point blood glucose values were below where they started, further time points at every 24 hrs were taken until blood glucose returned to the baseline levels. Normal chow was given back after the 6 hr time point.
Tachyphylaxis was determined by multiple injections. A second injection of the compound was administered after the blood glucose levels sufficiently returned to starting baseline levels. At this point, it was evident whether the compound had the same effect/efficacy, or if there was any noticeable tachyphylaxis.

human GLP-1 receptor [2] = molecular target: T1, human GLP-1 receptor (Homo sapiens, UniProt P43220); experiment: In vitro GLP-1 receptor binding (125I-GLP-1 ligand binding assay), human receptor
T1 construct: expressed in transfected cells; host or cells: CHOK1 cells with a cAMP-regulated luciferase reporter construct
T1 sequence (P43220 24-463): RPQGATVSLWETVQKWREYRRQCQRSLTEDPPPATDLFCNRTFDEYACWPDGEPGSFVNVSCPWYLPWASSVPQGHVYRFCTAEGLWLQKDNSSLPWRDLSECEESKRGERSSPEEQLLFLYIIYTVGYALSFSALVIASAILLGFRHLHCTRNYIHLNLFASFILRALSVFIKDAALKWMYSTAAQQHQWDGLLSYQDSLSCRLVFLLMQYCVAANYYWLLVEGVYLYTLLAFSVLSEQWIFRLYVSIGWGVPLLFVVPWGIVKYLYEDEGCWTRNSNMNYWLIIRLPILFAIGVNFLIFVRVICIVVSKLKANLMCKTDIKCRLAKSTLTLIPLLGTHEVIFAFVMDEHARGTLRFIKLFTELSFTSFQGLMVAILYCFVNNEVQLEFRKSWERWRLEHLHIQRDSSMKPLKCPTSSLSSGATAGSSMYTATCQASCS
Experimental: Cells were sedimented at 1500 rpm for 10 minutes. The resulting pellets were homogenized in 15 mls of ice cold sucrose buffer (25 mM Tris-HCl, 0.32 M Sucrose, 0.25 g/L sodium azide, pH 7.4) with a motorized, glass fitted, Teflon homogenizer. The homogenate was centrifuged at 48,000×g at 4° C. for 10 minutes, resuspended in 25 ml assay buffer (50 mM Tris-HCl, 5 mM MgCl2, 10 mg/ml protease-free BSA, 0.1 mg/ml STI, and 0.1 mg/ml Pefabloc, pH 7.4) with a Tissue-Tearor (Biospec Products), then centrifuged again at 48,000×g for 10 minutes. The pellets were homogenized for a third time in 15 ml assay buffer using the Tissue-Tearor and again centrifuged at 48,000×g for 10 minutes. The resulting pellet was resuspended in assay buffer at a wet weight concentration of 4 mg/ml.
Binding assays were performed in 96-well U-bottom plates. […] Bound radioactivity was determined using a TopCount microplate scintillation and luminescence counter (Packard Instrument Company, PerkinElmer, Shelton, Conn.). Nonlinear regression analyses of resulting concentration curves were performed using GraphPad Prism (GraphPad Software, Inc., San Diego, Calif.).

human GLP-1 receptor [3] = molecular target: T1, human GLP-1 receptor; experiment: GLP-1R reporter assay (cAMP-regulated luciferase, CHOK1 cells), human receptor; assay type: cell-based; details: luciferase reporter, 6 hours exposure; read-out: EC50 human
Experimental: (§1) A. GLP-1R Reporter Assay:
(§2) Increased cAMP levels were measured through enhanced expression of a luciferase reporter gene. […] The evening prior to assay, the cells were washed, the medium replaced with serum-free medium containing 0.5% protease-free bovine serum albumin (BSA), and then cultured overnight. […] Cell lysates were assayed for luciferase activity using the Luciferase Assay System (Promega Corporation, Madison, Wis.). Luciferase activity was measured using a Luminoskan Ascent (Thermo Electron Corporation, Marietta, Ohio). Nonlinear regression analyses of resultant compound concentration curves were performed using GraphPad Prism (GraphPad Software, Inc., San Diego, Calif.).

mouse GLP-1 receptor = molecular target: T2, mouse GLP-1 receptor (Mus musculus, UniProt O35659); experiment: GLP-1R reporter assay (cAMP-regulated luciferase, CHOK1 cells), mouse receptor; assay type: cell-based; details: 6 hours exposure
T2 construct: expressed in transfected cells; host or cells: CHOK1 cells with a cAMP-regulated luciferase reporter construct
T2 sequence (O35659 22-463): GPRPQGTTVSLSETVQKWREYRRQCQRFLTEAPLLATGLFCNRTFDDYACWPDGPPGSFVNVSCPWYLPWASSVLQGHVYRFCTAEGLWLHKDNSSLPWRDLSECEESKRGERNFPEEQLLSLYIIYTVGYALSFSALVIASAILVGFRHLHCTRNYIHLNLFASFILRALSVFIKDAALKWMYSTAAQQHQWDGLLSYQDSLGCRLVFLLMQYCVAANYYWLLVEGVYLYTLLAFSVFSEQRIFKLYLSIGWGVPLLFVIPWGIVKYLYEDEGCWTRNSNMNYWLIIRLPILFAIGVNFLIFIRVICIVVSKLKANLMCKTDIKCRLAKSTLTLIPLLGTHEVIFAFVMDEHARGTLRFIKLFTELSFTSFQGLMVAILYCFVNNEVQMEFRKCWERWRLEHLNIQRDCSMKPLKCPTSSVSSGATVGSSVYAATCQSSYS
Experimental: as §1, §2

[4] = tested on: C57B16 (normal lean) mice; experiment: Blood glucose and intraperitoneal glucose tolerance test in C57B16 (normal lean) mice; assay type: in vivo, mouse
Experimental: C57B16 (normal lean) mice were used at 10 to 12 weeks of age. These mice are commercially available through any vendor, such as Jackson Laboratories or Charles River, and are considered to be normal. The term “lean” is used to contrast these mice to obese db/db mice. C57B16 mice were randomized on body weight. […] After 4-5 hrs, an intraperitoneal glucose tolerance test (glucose tolerance test measures the body's ability to metabolize glucose) was performed using 2 g/kg of glucose dose. Blood glucose levels were measured 30 min and 90 minutes after the glucose load was administered and 24 hours or until blood glucose levels were back to the original values.

In the case of “cgGLP-18: SEQ ID NO: 12 + 20k PEG (HXEGTFTSDVSSYLEGQAAKEFIAWLVKGRGCSGG; 20k PEG)”, the “ability to lower blood glucose over a 72 hour time span (FIG. 12)” value ([1]; relative to control) is reported as “lowered blood glucose relative to control”.
CC[C@H](C)[C@H](NC(=O)[C@H](Cc1ccccc1)NC(=O)[C@H](CCC(=O)O)NC(=O)[C@H](CCCCN)NC(=O)[C@H](C)NC(=O)[C@H](C)NC(=O)[C@H](CCC(N)=O)NC(=O)CNC(=O)[C@H](CCC(=O)O)NC(=O)[C@H](CC(C)C)NC(=O)[C@H](Cc1ccc(O)cc1)NC(=O)[C@H](CO)NC(=O)[C@H](CO)NC(=O)[C@@H](NC(=O)[C@H](CC(=O)O)NC(=O)[C@H](CO)NC(=O)[C@@H](NC(=O)[C@H](Cc1ccccc1)NC(=O)[C@@H](NC(=O)CNC(=O)[C@H](CCC(=O)O)NC(=O)[C@H](C)NC(=O)[C@H](Cc1c[nH]cn1)NC(=O)[C@@H](N)[C@@H](C)O)[C@@H](C)O)[C@@H](C)O)C(C)C)C(=O)N[C@@H](C)C(=O)N[C@@H](Cc1c[nH]c2ccccc12)C(=O)N[C@@H](CC(C)C)C(=O)N[C@H](C(=O)N[C@@H](CCCCN)C(=O)NCC(=O)N[C@@H](CCCNC(=N)N)C(=O)O)C(C)C [T-GLP-1, T HAEGTFTSDVSSYLEGQAAKEFIAWLVKGR] gave an IC50 (human GLP-1 receptor [2]) of 53 nM, an EC50 (human GLP-1 receptor [3]) of 0.3 nM and an EC50 (mouse GLP-1 receptor) of 2 nM.
With CC[C@H](C)[C@H](NC(=O)[C@H](Cc1ccccc1)NC(=O)[C@H](CCC(=O)O)NC(=O)[C@H](CCCCN)NC(=O)[C@H](C)NC(=O)[C@H](C)NC(=O)[C@H](CCC(N)=O)NC(=O)CNC(=O)[C@H](CCC(=O)O)NC(=O)[C@H](CC(C)C)NC(=O)[C@H](Cc1ccc(O)cc1)NC(=O)[C@H](CO)NC(=O)[C@H](CO)NC(=O)[C@@H](NC(=O)[C@H](CC(=O)O)NC(=O)[C@H](CO)NC(=O)[C@@H](NC(=O)[C@H](Cc1ccccc1)NC(=O)[C@@H](NC(=O)CNC(=O)[C@H](CCC(=O)O)NC(=O)[C@H](C)NC(=O)[C@H](Cc1c[nH]cn1)NC(=O)[C@H](CCSC)NC(=O)[C@@H](N)CCSC)[C@@H](C)O)[C@@H](C)O)C(C)C)C(=O)N[C@@H](C)C(=O)N[C@@H](Cc1c[nH]c2ccccc12)C(=O)N[C@@H](CC(C)C)C(=O)N[C@H](C(=O)N[C@@H](CCCCN)C(=O)NCC(=O)N[C@@H](CCCNC(=N)N)C(=O)O)C(C)C [MM-GLP1, MM HAEGTFTSDVSSYLEGQAAKEFIAWLVKGR] the IC50 (human GLP-1 receptor [2]) was 100 nM, the EC50 (human GLP-1 receptor [3]) was 0.5 nM and the EC50 (mouse GLP-1 receptor) was 3 nM.
In the case of “cgGLP-9: SEQ ID NO: 6 + 20k PEG dimer (HGEGTFTSDVSSYLEGCAAKEFIAWLVKGRG; not fully specified (residue 17); also: 20k PEG dimer)”, the IC50 (human GLP-1 receptor [2]; membranes of CHOK1 cells expressing human GLP-1 receptor, 0.2 nM 125I-GLP-1) is reported as over 1000 nM, the EC50 (human GLP-1 receptor [3]) is reported as 1 nM and the EC50 (mouse GLP-1 receptor) is reported as 9 nM.
CC[C@H](C)[C@H](NC(=O)[C@H](Cc1ccccc1)NC(=O)[C@H](CCC(=O)O)NC(=O)[C@H](CCCCN)NC(=O)[C@H](C)NC(=O)[C@H](C)NC(=O)[C@H](CCC(N)=O)NC(=O)CNC(=O)[C@H](CCC(=O)O)NC(=O)[C@H](CC(C)C)NC(=O)[C@H](Cc1ccc(O)cc1)NC(=O)[C@H](CO)NC(=O)[C@H](CO)NC(=O)[C@@H](NC(=O)[C@H](CC(=O)O)NC(=O)[C@H](CO)NC(=O)[C@@H](NC(=O)[C@H](Cc1ccccc1)NC(=O)[C@@H](NC(=O)CNC(=O)[C@H](CCC(=O)O)NC(=O)[C@H](C)NC(=O)[C@H](Cc1c[nH]cn1)NC(=O)[C@@H](N)CO)[C@@H](C)O)[C@@H](C)O)C(C)C)C(=O)N[C@@H](C)C(=O)N[C@@H](Cc1c[nH]c2ccccc12)C(=O)N[C@@H](CC(C)C)C(=O)N[C@H](C(=O)N[C@@H](CCCCN)C(=O)NCC(=O)N[C@@H](CCCNC(=N)N)C(=O)O)C(C)C [S-GLP-1, S HAEGTFTSDVSSYLEGQAAKEFIAWLVKGR] showed an IC50 (human GLP-1 receptor [2]) of 53 nM, an EC50 (human GLP-1 receptor [3]) of 0.4 nM and an EC50 (mouse GLP-1 receptor) of 2 nM.
With “cgGLP-23: SEQ ID NO: 17 + 20 k PEG (HGEGTFTSDVSSYLE[Aib′]QAAKEFIAWLVKGRGC(20k PEG)-NH2; not fully specified; printed as HGEGT FTSDV SSYLE ZQAAK EFIAW LVKGR GC-amide; also: Aib defined in source as alpha aminobutyric acid)” the “decrease of blood glucose levels over time (FIG. 13)” value [1] was “significant decrease in blood glucose levels over a 48 hour time period”.
CC[C@H](C)[C@H](NC(=O)[C@H](Cc1ccccc1)NC(=O)[C@H](CCC(=O)O)NC(=O)[C@H](CCCCN)NC(=O)[C@H](C)NC(=O)[C@H](C)NC(=O)[C@H](CCC(N)=O)NC(=O)CNC(=O)[C@H](CCC(=O)O)NC(=O)[C@H](CC(C)C)NC(=O)[C@H](Cc1ccc(O)cc1)NC(=O)[C@H](CO)NC(=O)[C@H](CO)NC(=O)[C@@H](NC(=O)[C@H](CC(=O)O)NC(=O)[C@H](CO)NC(=O)[C@@H](NC(=O)[C@H](Cc1ccccc1)NC(=O)[C@@H](NC(=O)CNC(=O)[C@H](CCC(=O)O)NC(=O)[C@H](C)NC(=O)[C@H](Cc1c[nH]cn1)NC(=O)[C@H](C)N)[C@@H](C)O)[C@@H](C)O)C(C)C)C(=O)N[C@@H](C)C(=O)N[C@@H](Cc1c[nH]c2ccccc12)C(=O)N[C@@H](CC(C)C)C(=O)N[C@H](C(=O)N[C@@H](CCCCN)C(=O)NCC(=O)N[C@@H](CCCNC(=N)N)C(=O)O)C(C)C [A-GLP-1, A HAEGTFTSDVSSYLEGQAAKEFIAWLVKGR] gave an IC50 (human GLP-1 receptor [2]) of 38 nM, an EC50 (human GLP-1 receptor [3]) of 0.2 nM and an EC50 (mouse GLP-1 receptor) of 0.8 nM.
For “mgGLP32: SEQ ID NO: 18 + 20 k PEG (HGEGTFTSDVSSYLE[Aib′]QAAKEFIAWLVKGRGC(20k PEG)A-NH2; not fully specified)”, the “lowering of blood glucose levels (FIG. 14)” value ([1]; 10 ug per mouse) was “lowered blood glucose levels”, the “time needed for blood glucose levels to return to normal levels” value ([1]; 10 ug/mouse) was 72 h and the “lowering of blood glucose at different doses (FIG. 15)” value ([1]; 5 and 10 μg/mouse) was “lowered blood glucose levels for 24 hours in a dose dependent fashion”. The “tachyphylaxis, multiple dose experiment” value ([1]; second bolus the next day) was “The same result was observed”, the “tachyphylaxis after the 4th dose (FIG. 19)” value ([4]; 4-day multiple dose experiment) was “No tachyphylaxyis was observed after the 4th dose” and the “blood glucose after injection, before the GTT (FIG. 16)” value ([4]; C57B16 mice, first 52 hours after injection) was “decreased blood glucose to the same extent during the first 52 hours”. For the same compound, the “blood glucose during the 4 hour fast (FIG. 19)” value ([4]; multiple dose experiment) was “blood glucose was decreased during the 4 hour fast” and the “blood glucose spike during first and second GTT (FIG. 19)” value ([4]; multiple dose experiment, GTT after first and 4th injection) was “no blood glucose spike was seen during the first and second GTT”.
“cgGLP-20: SEQ ID NO: 25 + 20 k mPEG (H[Aib′]EGTFTSDVSSYLE[Aib′]QAAKEFIAWLVKGRGC(20k mPEG)SG; not fully specified)” was tested, and the “decrease of blood glucose levels over time (FIG. 13)” value [1] was “significant decrease in blood glucose levels over a 48 hour time period”.
